Source: ChEMBL document CHEMBL5465560, “Selectivity Literature for EUbOPEN Chemogenomic Library” (2024)

What was measured:
[1] = biological target: Serine/threonine-protein kinase PAK 3 (Homo sapiens) (UniProt O75914); test: Selectivity interaction (Ambit KINOMEscan and KiNATiv profiling in Jurkat cells) EUB0000090b PAK3; assay type: cell-based; conditions: at 1 µM
[2] = biological target: T1, Serine/threonine-protein kinase NLK (Homo sapiens) (UniProt Q9UBE8); test: Selectivity interaction (KinomeScan (DiscoverX)) EUB0001619a NLK; conditions: at 1 µM
T1 sequence (whole entry): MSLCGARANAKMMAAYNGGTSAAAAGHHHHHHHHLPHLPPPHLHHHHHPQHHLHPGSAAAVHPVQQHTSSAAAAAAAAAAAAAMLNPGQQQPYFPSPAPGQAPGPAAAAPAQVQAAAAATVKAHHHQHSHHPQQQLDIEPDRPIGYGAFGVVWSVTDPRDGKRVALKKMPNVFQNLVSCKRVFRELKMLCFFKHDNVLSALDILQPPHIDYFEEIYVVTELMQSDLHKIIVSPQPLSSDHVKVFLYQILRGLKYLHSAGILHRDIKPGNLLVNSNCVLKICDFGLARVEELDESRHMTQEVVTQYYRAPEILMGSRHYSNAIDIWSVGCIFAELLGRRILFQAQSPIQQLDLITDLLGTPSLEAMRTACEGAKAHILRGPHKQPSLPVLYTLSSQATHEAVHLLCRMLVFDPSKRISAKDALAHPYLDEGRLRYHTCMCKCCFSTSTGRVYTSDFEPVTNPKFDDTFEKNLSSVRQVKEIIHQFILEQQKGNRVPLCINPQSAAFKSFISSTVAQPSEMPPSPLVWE

[3] = biological target: Tyrosine-protein kinase FRK (Homo sapiens) (UniProt P42685); test: Selectivity interaction (KinomeScan (DiscoverX)) EUB0001619a FRK; conditions: at 1 µM
Sequence of Tyrosine-protein kinase FRK (Homo sapiens) (P42685 whole entry): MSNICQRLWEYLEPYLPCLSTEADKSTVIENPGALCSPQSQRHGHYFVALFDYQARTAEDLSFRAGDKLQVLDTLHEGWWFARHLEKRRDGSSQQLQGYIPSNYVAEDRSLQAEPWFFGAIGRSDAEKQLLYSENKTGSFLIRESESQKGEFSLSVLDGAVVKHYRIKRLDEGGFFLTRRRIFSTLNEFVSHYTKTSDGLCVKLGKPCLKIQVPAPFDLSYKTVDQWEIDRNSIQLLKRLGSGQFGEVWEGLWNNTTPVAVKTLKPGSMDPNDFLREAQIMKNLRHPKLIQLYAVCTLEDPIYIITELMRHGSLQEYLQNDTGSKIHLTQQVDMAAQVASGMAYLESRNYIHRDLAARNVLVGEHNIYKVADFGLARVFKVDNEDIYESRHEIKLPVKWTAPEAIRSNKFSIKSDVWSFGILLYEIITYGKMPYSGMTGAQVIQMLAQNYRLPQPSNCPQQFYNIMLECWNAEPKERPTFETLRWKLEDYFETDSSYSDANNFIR

[4] = biological target: Cyclin-dependent kinase 8 (Homo sapiens, UniProt P49336); test: Selectivity interaction (KinomeScan (DiscoverX)) EUB0000045b CDK8
Sequence of Cyclin-dependent kinase 8 (P49336 whole entry): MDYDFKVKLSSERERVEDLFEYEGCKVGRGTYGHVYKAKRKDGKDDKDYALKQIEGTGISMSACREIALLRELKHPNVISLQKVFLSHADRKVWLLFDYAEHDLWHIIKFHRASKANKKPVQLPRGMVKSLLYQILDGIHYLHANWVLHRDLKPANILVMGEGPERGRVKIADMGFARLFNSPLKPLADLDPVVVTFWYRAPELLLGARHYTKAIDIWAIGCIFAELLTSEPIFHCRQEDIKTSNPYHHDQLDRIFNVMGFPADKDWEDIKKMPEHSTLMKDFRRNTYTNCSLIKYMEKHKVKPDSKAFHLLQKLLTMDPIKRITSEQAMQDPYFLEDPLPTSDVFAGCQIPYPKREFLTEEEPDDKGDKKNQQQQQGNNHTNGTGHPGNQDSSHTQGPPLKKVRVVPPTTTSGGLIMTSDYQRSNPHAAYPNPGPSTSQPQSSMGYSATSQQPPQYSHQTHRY

[5] = biological target: T2, Phosphatidylinositol 5-phosphate 4-kinase type-2 beta (Homo sapiens) (UniProt P78356); test: Selectivity interaction (KinomeScan (DiscoverX)) EUB0000045b PIP4K2B
T2 sequence (whole entry): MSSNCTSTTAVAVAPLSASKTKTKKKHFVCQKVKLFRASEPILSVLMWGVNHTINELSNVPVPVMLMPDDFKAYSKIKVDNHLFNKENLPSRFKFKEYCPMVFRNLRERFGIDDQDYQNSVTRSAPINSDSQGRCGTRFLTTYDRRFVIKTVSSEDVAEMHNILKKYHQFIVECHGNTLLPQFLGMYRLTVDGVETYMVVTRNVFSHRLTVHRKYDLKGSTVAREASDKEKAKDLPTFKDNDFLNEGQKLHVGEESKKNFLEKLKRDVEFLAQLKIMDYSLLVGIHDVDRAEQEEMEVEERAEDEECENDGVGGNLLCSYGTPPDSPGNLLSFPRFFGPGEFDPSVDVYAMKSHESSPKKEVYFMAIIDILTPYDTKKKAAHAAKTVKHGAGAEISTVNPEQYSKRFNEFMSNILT

[6] = biological target: T3, Inhibitor of nuclear factor kappa-B kinase subunit epsilon (Homo sapiens) (UniProt Q14164); test: Selectivity interaction (KinomeScan (DiscoverX)) EUB0000595a IKBKE; conditions: at 10 µM
T3 sequence (whole entry): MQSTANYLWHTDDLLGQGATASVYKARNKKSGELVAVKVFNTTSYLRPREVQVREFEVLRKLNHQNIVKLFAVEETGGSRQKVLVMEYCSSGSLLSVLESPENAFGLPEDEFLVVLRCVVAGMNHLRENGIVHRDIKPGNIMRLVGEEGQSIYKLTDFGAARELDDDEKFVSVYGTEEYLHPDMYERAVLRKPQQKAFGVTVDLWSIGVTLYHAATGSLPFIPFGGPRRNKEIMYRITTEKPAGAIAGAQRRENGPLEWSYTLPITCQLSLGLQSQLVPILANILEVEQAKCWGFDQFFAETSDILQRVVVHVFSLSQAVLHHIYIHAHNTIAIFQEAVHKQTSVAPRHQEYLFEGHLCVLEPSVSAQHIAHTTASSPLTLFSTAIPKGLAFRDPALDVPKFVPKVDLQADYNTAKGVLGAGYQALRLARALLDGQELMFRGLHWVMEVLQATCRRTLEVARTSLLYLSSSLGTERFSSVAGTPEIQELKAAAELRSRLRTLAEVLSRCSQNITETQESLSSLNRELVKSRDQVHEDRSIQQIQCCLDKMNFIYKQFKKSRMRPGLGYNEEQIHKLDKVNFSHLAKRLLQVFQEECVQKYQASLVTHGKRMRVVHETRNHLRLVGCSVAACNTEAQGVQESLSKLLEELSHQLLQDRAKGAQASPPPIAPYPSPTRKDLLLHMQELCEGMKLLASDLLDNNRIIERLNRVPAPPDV

[7] = biological target: Aurora kinase B (Homo sapiens, UniProt Q96GD4); test: Selectivity interaction (Kinase panel (KiNativ target engagement assay in Jurkat cells)) EUB0001635a AURKB; assay type: cell-based; conditions: Selectivity number of off-targets 0.0, Selectivity number of targets 233.0, Source Knowledge https://www.sciencedirect.com/science/article/pii/S2451945619300674?via%3Dihub, at 1 µM
[8] = biological target: MAP/microtubule affinity-regulating kinase 3 (Homo sapiens) (UniProt P27448); test: Selectivity interaction (ActivX KiNativ screen (kinase selectivity in THP-1 cell lysates)) EUB0000639a MARK3; assay type: subcellular; conditions: lysate, at 0.01 µM
Sequence of MAP/microtubule affinity-regulating kinase 3 (Homo sapiens) (P27448 whole entry, looked up): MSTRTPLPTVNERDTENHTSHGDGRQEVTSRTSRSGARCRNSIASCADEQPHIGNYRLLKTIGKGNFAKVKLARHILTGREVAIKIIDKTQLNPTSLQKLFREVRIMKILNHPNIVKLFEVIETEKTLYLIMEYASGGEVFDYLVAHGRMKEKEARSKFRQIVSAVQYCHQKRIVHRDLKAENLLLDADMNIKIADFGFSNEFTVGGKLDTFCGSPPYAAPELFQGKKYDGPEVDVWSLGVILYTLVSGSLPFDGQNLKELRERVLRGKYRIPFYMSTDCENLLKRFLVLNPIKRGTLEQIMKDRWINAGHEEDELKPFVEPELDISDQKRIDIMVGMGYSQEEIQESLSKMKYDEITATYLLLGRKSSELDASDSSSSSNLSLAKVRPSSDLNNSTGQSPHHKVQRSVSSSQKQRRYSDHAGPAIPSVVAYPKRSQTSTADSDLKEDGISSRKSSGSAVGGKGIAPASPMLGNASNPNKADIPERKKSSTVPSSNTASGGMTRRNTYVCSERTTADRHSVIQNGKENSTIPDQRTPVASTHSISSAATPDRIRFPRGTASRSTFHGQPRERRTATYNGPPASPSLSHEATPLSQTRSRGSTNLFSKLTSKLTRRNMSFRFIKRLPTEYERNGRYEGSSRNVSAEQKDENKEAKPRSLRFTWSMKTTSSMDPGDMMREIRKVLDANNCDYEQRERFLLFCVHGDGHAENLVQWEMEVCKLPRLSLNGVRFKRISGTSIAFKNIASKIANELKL

[9] = biological target: Serine/threonine-protein kinase 32B (Homo sapiens) (UniProt Q9NY57); test: Selectivity interaction (KinomeScan (DiscoverX)) EUB0000229b STK32B; conditions: at 10 µM
Sequence of Serine/threonine-protein kinase 32B (Homo sapiens) (Q9NY57 whole entry): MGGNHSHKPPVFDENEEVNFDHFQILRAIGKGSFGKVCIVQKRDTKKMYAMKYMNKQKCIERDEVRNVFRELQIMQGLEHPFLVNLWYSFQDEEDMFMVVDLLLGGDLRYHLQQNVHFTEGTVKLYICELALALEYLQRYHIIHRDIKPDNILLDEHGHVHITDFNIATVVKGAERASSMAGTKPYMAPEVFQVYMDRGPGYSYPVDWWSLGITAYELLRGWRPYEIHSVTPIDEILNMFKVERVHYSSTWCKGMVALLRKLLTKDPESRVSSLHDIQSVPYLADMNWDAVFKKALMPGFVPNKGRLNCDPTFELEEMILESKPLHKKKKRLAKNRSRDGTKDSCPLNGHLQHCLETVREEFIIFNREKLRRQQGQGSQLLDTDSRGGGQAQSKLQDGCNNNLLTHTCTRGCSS

[10] = biological target: Serine/threonine-protein kinase NIM1 (Homo sapiens, UniProt Q8IY84); test: Selectivity interaction (KinomeScan (DiscoverX)) EUB0000229b NIM1K; conditions: at 10 µM
[11] = biological target: Sodium-dependent serotonin transporter (Homo sapiens, UniProt P31645); test: Selectivity interaction (Panel of kinases, GPCRs, ion channels and transporters (enzymatic assay)) EUB0000223bCl SLC6A4
Sequence of Sodium-dependent serotonin transporter (P31645 whole entry, looked up): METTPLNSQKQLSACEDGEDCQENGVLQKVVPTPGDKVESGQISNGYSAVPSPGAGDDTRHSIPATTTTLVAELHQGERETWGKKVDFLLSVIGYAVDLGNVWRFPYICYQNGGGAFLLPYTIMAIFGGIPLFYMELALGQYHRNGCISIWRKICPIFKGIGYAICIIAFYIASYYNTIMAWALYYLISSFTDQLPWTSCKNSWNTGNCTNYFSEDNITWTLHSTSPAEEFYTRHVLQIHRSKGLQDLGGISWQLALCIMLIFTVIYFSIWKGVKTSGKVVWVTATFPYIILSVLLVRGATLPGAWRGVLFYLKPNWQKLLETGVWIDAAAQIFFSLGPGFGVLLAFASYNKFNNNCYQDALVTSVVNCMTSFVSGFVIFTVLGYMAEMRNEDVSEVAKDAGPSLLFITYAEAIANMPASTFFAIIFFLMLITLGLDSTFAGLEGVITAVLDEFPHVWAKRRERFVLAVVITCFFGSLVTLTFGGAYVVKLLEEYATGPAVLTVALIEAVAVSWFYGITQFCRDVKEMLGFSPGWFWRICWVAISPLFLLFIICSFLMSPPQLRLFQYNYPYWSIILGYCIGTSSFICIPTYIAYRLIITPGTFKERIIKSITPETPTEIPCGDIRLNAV

[12] = biological target: Insulin-like growth factor 1 receptor (Homo sapiens, UniProt P08069); test: Selectivity interaction (KinomeScan (DiscoverX)) EUB0000092b IGF1R; conditions: at 10 µM
Sequence of Insulin-like growth factor 1 receptor (P08069 31-736 limits assumed): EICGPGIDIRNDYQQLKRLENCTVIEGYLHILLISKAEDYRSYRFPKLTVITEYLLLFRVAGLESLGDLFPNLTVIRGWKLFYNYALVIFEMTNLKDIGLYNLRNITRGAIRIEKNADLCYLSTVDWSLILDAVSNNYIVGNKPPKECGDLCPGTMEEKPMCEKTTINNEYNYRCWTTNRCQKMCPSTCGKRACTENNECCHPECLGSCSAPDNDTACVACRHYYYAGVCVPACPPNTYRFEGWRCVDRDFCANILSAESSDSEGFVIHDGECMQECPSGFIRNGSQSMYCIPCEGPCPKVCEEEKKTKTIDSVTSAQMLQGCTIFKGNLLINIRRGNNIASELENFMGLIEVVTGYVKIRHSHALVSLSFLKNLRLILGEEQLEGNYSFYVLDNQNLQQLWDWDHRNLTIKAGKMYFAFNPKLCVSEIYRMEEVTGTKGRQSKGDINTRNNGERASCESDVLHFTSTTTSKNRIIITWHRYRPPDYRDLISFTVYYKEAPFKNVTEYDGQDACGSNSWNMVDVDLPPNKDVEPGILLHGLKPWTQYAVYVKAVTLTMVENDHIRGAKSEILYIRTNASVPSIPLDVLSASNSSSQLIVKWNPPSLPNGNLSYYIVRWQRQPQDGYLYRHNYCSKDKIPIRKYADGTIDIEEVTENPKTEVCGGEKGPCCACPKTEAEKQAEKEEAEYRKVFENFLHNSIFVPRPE
Sequence of Insulin-like growth factor 1 receptor (P08069 741-1367 limits assumed): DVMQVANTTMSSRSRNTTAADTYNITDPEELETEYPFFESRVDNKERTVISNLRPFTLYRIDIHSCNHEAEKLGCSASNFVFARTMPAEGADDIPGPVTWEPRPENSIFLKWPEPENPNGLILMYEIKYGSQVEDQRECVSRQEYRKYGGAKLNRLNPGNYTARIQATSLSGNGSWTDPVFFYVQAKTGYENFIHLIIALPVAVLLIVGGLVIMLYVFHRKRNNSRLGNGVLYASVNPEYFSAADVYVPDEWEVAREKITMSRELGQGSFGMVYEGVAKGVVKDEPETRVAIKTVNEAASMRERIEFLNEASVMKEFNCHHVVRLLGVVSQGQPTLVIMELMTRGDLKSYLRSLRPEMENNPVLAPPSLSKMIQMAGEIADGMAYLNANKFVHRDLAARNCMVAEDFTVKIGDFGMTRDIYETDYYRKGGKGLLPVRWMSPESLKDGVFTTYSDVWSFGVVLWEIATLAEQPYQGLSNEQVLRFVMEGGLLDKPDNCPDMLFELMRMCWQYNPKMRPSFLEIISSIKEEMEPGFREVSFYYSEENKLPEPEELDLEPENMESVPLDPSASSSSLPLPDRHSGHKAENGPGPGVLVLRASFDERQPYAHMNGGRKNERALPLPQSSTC

[13] = biological target: Serine/threonine-protein kinase 16 (Homo sapiens, UniProt O75716); test: Selectivity interaction (KinomeScan (DiscoverX)) EUB0001550a STK16; conditions: at 1 µM
Sequence of Serine/threonine-protein kinase 16 (O75716 whole entry): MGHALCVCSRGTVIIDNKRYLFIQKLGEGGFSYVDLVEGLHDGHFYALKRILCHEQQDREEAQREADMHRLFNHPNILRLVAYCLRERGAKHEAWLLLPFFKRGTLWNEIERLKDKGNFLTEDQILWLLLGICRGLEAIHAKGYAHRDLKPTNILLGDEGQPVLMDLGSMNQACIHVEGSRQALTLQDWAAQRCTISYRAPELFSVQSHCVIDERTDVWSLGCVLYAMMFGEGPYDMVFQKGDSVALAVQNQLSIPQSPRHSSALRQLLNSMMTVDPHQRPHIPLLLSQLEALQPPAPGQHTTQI

Sequence of Serine/threonine-protein kinase PAK 3 (Homo sapiens) (O75914 whole entry, looked up): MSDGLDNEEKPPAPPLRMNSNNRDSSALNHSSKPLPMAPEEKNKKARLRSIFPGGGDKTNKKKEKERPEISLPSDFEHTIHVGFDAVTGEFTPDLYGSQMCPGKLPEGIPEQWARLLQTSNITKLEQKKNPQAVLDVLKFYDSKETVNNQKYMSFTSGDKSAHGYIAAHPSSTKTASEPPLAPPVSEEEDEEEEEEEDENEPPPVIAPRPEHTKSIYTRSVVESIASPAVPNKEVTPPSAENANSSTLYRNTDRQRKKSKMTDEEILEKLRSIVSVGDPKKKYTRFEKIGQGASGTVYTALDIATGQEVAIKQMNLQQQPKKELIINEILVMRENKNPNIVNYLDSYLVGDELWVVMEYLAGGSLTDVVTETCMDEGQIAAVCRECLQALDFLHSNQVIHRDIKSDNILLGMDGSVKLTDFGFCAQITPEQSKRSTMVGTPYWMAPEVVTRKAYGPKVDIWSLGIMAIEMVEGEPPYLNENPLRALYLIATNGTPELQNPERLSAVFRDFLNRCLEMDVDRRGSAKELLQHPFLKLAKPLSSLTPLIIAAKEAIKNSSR

With `CN(C)C/C=C/C(=O)Nc1ccc(C(=O)N2CCCC(Nc3ncc(Cl)c(-c4c[nH]c5ccccc45)n3)C2)cc1` (stereo not given) the % of control [1] was 80%.

Work on `N#Cc1cccc(-c2c[nH]c3ncnc(N4CCOCC4)c23)c1` yielded a % of control [2] of 85% and a % of control [3] of 88%.

For `C=CC(=O)Nc1cc(-n2c(=O)ccc3cnc4ccc(-c5ccc(NS(C)(=O)=O)cc5)cc4c32)ccc1C`, the % of control ([4]; at 1 µM) was 76%, the % of control ([4]; at 10 µM) was 62% and the % of control ([5]; at 1 µM) was 93%. The % of control ([5]; at 10 µM) was 63%.

With `COCC(=O)NC/C=C/c1ccc2ncnc(Nc3ccc(Oc4ccc(C)nc4)c(C)c3)c2c1` [CP-724714] the % of control [6] was 100%.

`C=CC(=O)Nc1ccc(C(=O)Nc2[nH]nc3c2CN(C(=O)N[C@H](CN(C)C)c2ccccc2)C3(C)C)cc1` was tested, and the % of engagement [7] was 23%.

For `CC[C@@H]1[C@H](F)C(=O)N[C@@H]1COc1nccc2cc(C(N)=O)c(OC)cc12` [ZIMLOVISERTIB], the % of inhibition [8] was 10.4%.

For `COc1cc(N(C)c2ccnc3ccc(C(F)(F)F)cc23)cc(OC)c1OC`, the % binding [9] was 100% and the % binding [10] was 100%.

`COc1cc(C(=O)N2CC[C@@H](O)[C@@H](N)C2)cc2nc(-c3cc4ccccc4n3CC3CC3)n(C)c12` gave a pXC50 [11] of 4.3 M.

Work on `CCC(=O)N1CCN(c2ccc(-n3c(=O)ccc4cnc5ccc(-c6cnc7ccccc7c6)cc5c43)cc2C(F)(F)F)CC1` yielded a % of control [12] of 94%.

`CN(C)CC#Cc1ccc2[nH]c3c(c2c1)-c1nc(N)ncc1CCC3` was tested, and the % of control [13] was 14%.
